According to patent US20220259212A1, “INHIBITORS OF INDOLEAMINE 2,3-DIOXYGENASE AND/OR TRYPTOPHAN 2,3-DIOXYGENASE” (Idorsia Pharmaceuticals Ltd, priority 2019, published 2022):

Columns and labels:
[1] = target: T1, Recombinant human TDO comprising amino acids 19-407 (Homo sapiens, UniProt P48775); assay: TDO2 enzymatic assay (NFK quantified by LCMS); assay type: biochemical; conditions: 15 nM enzyme, 200 μM L-tryptophan, 30 min pre-incubation, pH7; mean if measured multiple times; read-out: hTDO activity (IC50 in nM)
T1 construct: human TDO comprising amino acids 19-407; hexahistidine (N); made in house; host or cells: E. coli
T1 sequence (P48775 19-406 limits assumed): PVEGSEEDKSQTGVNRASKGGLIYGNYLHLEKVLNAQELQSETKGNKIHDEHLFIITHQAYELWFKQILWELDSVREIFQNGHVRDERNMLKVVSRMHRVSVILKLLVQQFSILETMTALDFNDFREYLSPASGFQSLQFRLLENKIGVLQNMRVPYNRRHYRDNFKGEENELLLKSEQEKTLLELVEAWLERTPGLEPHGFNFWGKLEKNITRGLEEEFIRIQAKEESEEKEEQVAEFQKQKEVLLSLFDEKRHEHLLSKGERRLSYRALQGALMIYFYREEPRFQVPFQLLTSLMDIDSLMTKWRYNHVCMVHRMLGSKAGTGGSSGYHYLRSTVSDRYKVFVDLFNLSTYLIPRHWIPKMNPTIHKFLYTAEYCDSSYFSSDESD
How it was run: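 E. coli-expressed N-terminal His-tagged TDO (15 nM) in pH 7 phosphate buffer with ascorbate and catalase, preincubated 30 min at RT with compound (10 μM to 0.5 nM, 0.6% DMSO). Reaction started with 200 μM L-tryptophan for 30 min at RT; NFK measured by LCMS against deuterated internal standard, IC50 by four-parameter fit, duplicates.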

IDO1 in SKOV3 cells = target: T2, IDO1 in SKOV3 cells (Homo sapiens, UniProt P14902); assay: Cell-based IDO inhibitory activity in IFNγ-stimulated SKOV3 cells (NFK + kynurenine by LCMS); conditions: IFNγ 50 ng/ml, 200 uM L-tryptophan, 24 hours
T2 construct: SKOV3 cells (NCI, No. 0503405) which upregulate IDO1 after stimulation with IFNγ; host or cells: SKOV3 cells stimulated with IFNγ
T2 sequence (P14902 whole entry): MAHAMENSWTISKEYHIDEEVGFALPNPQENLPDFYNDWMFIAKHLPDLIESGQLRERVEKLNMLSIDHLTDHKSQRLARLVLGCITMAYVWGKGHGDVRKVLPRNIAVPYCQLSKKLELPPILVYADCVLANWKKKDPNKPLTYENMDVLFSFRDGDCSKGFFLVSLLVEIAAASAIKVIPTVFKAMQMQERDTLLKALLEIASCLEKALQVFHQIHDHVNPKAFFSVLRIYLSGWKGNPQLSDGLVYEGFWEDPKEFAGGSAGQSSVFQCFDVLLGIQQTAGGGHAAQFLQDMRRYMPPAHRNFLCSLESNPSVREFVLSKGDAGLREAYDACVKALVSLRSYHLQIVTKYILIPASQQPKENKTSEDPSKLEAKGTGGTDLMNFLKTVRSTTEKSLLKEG
How it was run: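 SKOV3 cells (4000/well, pre-cultured 24 h) were treated with compound (10 uM-40 nM) plus 200 uM L-tryptophan and 50 ng/ml IFNγ for 24 h at 37° C. N-formylkynurenine plus kynurenine in supernatant was measured by LCMS against a d5-tryptophan internal standard. IC50 was fitted against 0.2% DMSO and reference-inhibitor controls, in duplicate, with repeat measurements averaged.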

[2] = target: T3, Recombinant full-length human IDO1 (Homo sapiens, UniProt P14902); assay: IDO1 enzymatic assay (NFK quantified by LCMS); assay type: biochemical; conditions: 2 nM enzyme, 5 μM L-tryptophan, 30 min pre-incubation, pH6.5; mean if measured multiple times; read-out: hIDO activity (IC50 in nM)
T3 construct: Recombinant full-length human IDO1 with a N-terminal hexahistidine tag; hexahistidine (N); made in house; host or cells: E. coli
T3 sequence (P14902 whole entry): as above
How it was run: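 His-tagged full-length IDO1 (E. coli, 2 nM final) in pH 6.5 phosphate with ascorbate, methylene blue and catalase was preincubated 30 min at RT with compound (10 µM–0.5 nM, 0.6% DMSO), then run 30 min at RT with 5 µM L-Trp. NFK was measured by LCMS against a d5-Trp standard. IC50 came from a four-parameter fit of duplicates.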

IC50 [1]	IC50 (IDO1 in SKOV3 cells)	IC50 [2]	SMILES
> 10200 nM	7.92 nM	1.82 nM	CCc1ccc2cncn2c1[C@@H](O)c1cn(-c2ccc(OC)cc2)nn1 [Example 34a, (R)-(6-Ethyl-imidazo[1,5-a]pyridin-5-yl)-[1-(4-methoxy-phenyl)-1H-[1,2,3]triazol-4-yl]-methanol]
> 10200 nM	47.4 nM	5.6 nM	Oc1ccc(-n2cc([C@H](O)c3c(C4CC4)ncc4cncn34)nn2)cc1F [Example 27, 4-{4-[(R)-(6-Cyclopropyl-imidazo[1,5-a]pyrazin-5-yl)-hydroxy-methyl]-[1,2,3]triazol-1-yl}-2-fluoro-phenol]
> 10200 nM	2940 nM	433 nM	OC(c1ccn(-c2ccccc2)n1)c1c(Cl)ccc2cncn12 (racemic) [Ref2, rac-(6-Chloro-imidazo[1,5-a]pyridin-5-yl)-(1-phenyl-1H-pyrazol-3-yl)-methanol, reference compound]
